Assays:
Experiment in all cases: cells
Type in all cases: functional, cell-based, Homo sapiens
COLO-829 = conditions: Homo sapiens, COLO-829
Description: SANGER: Inhibition of human COLO-829 cell growth in a cell viability assay.

DSH1 = conditions: Homo sapiens, DSH1;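 note: growth inhibition of human DSH1 cells, measured with a cell viability readout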
Description: SANGER: Inhibition of human DSH1 cell growth in a cell viability assay.

ES6 = conditions: Homo sapiens, ES6;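 note: growth inhibition of human ES6 cells, read out with a cell viability assay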
Description: SANGER: Inhibition of human ES6 cell growth in a cell viability assay.

ETK-1 = conditions: Homo sapiens, ETK-1;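 note: growth inhibition of human ETK-1 cells, read out with a cell viability assay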
Description: SANGER: Inhibition of human ETK-1 cell growth in a cell viability assay.

EW-13 = conditions: Homo sapiens, EW-13;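 note: growth inhibition of EW-13 cells, read out with a cell viability assay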
Description: SANGER: Inhibition of human EW-13 cell growth in a cell viability assay.

EW-24 = conditions: Homo sapiens, EW-24;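 note: human EW-24 cancer cell line, growth inhibition read out via a cell viability assay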
Description: SANGER: Inhibition of human EW-24 cell growth in a cell viability assay.

HCC2157 = conditions: Homo sapiens, HCC2157;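 note: growth inhibition of the cancer cell line, read out as cell viability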
Description: SANGER: Inhibition of human HCC2157 cell growth in a cell viability assay.

HCE-4 = conditions: Homo sapiens, HCE-4;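 note: cell viability assay measuring inhibition of growth in the human HCE-4 cell line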
Description: SANGER: Inhibition of human HCE-4 cell growth in a cell viability assay.

HCE-T = conditions: Homo sapiens, HCE-T;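 note: cell viability assay read-out, reporting inhibition of HCE-T cell growth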
Description: SANGER: Inhibition of human HCE-T cell growth in a cell viability assay.

IST-MEL1 = conditions: Homo sapiens, IST-MEL1;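 note: growth inhibition of the cell line, read out with a cell viability assay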
Description: SANGER: Inhibition of human IST-MEL1 cell growth in a cell viability assay.

JVM-2 = conditions: Homo sapiens, JVM-2;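 note: growth inhibition of JVM-2 cells determined by a cell viability assay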
Description: SANGER: Inhibition of human JVM-2 cell growth in a cell viability assay.

KARPAS-45 = conditions: Homo sapiens, KARPAS-45;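 note: inhibition of cell line growth, read out through a viability assay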
Description: SANGER: Inhibition of human KARPAS-45 cell growth in a cell viability assay.

KE-37 = conditions: Homo sapiens, KE-37;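 note: growth inhibition of KE-37 cells, read out with a cell viability assay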
Description: SANGER: Inhibition of human KE-37 cell growth in a cell viability assay.

KG-1 = conditions: Homo sapiens, KG-1;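 note: growth inhibition of KG-1 cells, read out by a cell viability assay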
Description: SANGER: Inhibition of human KG-1 cell growth in a cell viability assay.

KM-H2 = conditions: Homo sapiens, KM-H2;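 note: growth inhibition of KM-H2 cells, read out by a cell viability assay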
Description: SANGER: Inhibition of human KM-H2 cell growth in a cell viability assay.

KNS-81-FD = conditions: Homo sapiens, KNS-81-FD;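 note: growth inhibition of KNS-81-FD cells, read out with a cell viability assay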
Description: SANGER: Inhibition of human KNS-81-FD cell growth in a cell viability assay.

KURAMOCHI = conditions: Homo sapiens, KURAMOCHI;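 note: growth inhibition of KURAMOCHI cells, read out with a cell viability assay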
Description: SANGER: Inhibition of human KURAMOCHI cell growth in a cell viability assay.

LB771-HNC = conditions: Homo sapiens, LB771-HNC;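 note: growth inhibition of LB771-HNC human cells, read out with a cell viability assay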
Description: SANGER: Inhibition of human LB771-HNC cell growth in a cell viability assay.

LS-1034 = conditions: Homo sapiens, LS-1034
Description: SANGER: Inhibition of human LS-1034 cell growth in a cell viability assay.

LS-513 = conditions: Homo sapiens, LS-513
Description: SANGER: Inhibition of human LS-513 cell growth in a cell viability assay.

LU-134-A = conditions: Homo sapiens, LU-134-A
Description: SANGER: Inhibition of human LU-134-A cell growth in a cell viability assay.

MOLT-4 = conditions: Homo sapiens, MOLT-4;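 note: growth inhibition of MOLT-4 cells, determined with a cell viability readout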
Description: SANGER: Inhibition of human MOLT-4 cell growth in a cell viability assay.

MS-1 = conditions: Homo sapiens, MS-1;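 note: growth inhibition of MS-1 cells, read out by cell viability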
Description: SANGER: Inhibition of human MS-1 cell growth in a cell viability assay.

Mo = conditions: Homo sapiens, Mo
Description: SANGER: Inhibition of human Mo-T cell growth in a cell viability assay.

NB10 = conditions: Homo sapiens, NB10;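 note: growth inhibition of NB10 cells, read out by a cell viability assay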
Description: SANGER: Inhibition of human NB10 cell growth in a cell viability assay.

NCI-H1395 = conditions: Homo sapiens, NCI-H1395;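 note: cell viability assay read-out quantifying reduced proliferation of human NCI-H1395 cells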
Description: SANGER: Inhibition of human NCI-H1395 cell growth in a cell viability assay.

NCI-H1650 = conditions: Homo sapiens, NCI-H1650;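 note: growth inhibition of human NCI-H1650 cells measured by a cell viability assay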
Description: SANGER: Inhibition of human NCI-H1650 cell growth in a cell viability assay.

NCI-H1770 = conditions: Homo sapiens, NCI-H1770;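 note: growth inhibition of NCI-H1770 cells determined with a viability readout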
Description: SANGER: Inhibition of human NCI-H1770 cell growth in a cell viability assay.

NCI-H82 = conditions: Homo sapiens, NCI-H82;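 note: growth inhibition of NCI-H82 cells, measured with a cell viability readout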
Description: SANGER: Inhibition of human NCI-H82 cell growth in a cell viability assay.

NOMO-1 = conditions: Homo sapiens, NOMO-1;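 note: growth inhibition of human NOMO-1 cells measured by a cell viability assay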
Description: SANGER: Inhibition of human NOMO-1 cell growth in a cell viability assay.

NOS-1 = conditions: Homo sapiens, NOS-1;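 note: growth inhibition of the human NOS-1 cell line, read out with a cell viability assay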
Description: SANGER: Inhibition of human NOS-1 cell growth in a cell viability assay.

OCUB-M = conditions: Homo sapiens, OCUB-M;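 note: growth inhibition of the cancer cell line, read out through a cell viability assay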
Description: SANGER: Inhibition of human OCUB-M cell growth in a cell viability assay.

QIMR-WIL = conditions: Homo sapiens, QIMR-WIL;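 note: growth inhibition of QIMR-WIL cells, read out with a cell viability assay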
Description: SANGER: Inhibition of human QIMR-WIL cell growth in a cell viability assay.

RPMI-8866 = conditions: Homo sapiens, RPMI-8866
Description: SANGER: Inhibition of human RPMI-8866 cell growth in a cell viability assay.

RS4-11 = conditions: Homo sapiens, RS4-11;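 note: growth inhibition of RS4-11 cells, read out by a cell viability assay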
Description: SANGER: Inhibition of human RS4-11 cell growth in a cell viability assay.

RXF 393 = conditions: Homo sapiens, RXF 393;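 note: growth inhibition of human RXF 393 cells, read out with a cell viability assay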
Description: SANGER: Inhibition of human RXF393 cell growth in a cell viability assay.

SCH = conditions: Homo sapiens, SCH;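 note: growth inhibition of human SCH cells, read out in a cell viability assay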
Description: SANGER: Inhibition of human SCH cell growth in a cell viability assay.

SF-268 = conditions: Homo sapiens, SF-268;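 note: growth inhibition of SF-268 cells determined with a cell viability assay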
Description: SANGER: Inhibition of human SF268 cell growth in a cell viability assay.

SF-539 = conditions: Homo sapiens, SF-539;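 note: Read-out is a cell viability assay, with IC50 reflecting inhibition of cell growth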
Description: SANGER: Inhibition of human SF539 cell growth in a cell viability assay.

SK-MEL-1 = conditions: Homo sapiens, SK-MEL-1;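 note: growth inhibition of human SK-MEL-1 cells, read out by a cell viability assay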
Description: SANGER: Inhibition of human SK-MEL-1 cell growth in a cell viability assay.

8-MG-BA = conditions: Homo sapiens, 8-MG-BA;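 note: growth inhibition of 8-MG-BA cells, read out with a cell viability assay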
Description: SANGER: Inhibition of human 8-MG-BA cell growth in a cell viability assay.

A4-Fuk = conditions: Homo sapiens, A4-Fuk;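 note: growth inhibition of A4-Fuk cells, read out by a cell viability assay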
Description: SANGER: Inhibition of human A4-Fuk cell growth in a cell viability assay.

BB30-HNC = conditions: Homo sapiens, BB30-HNC;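 note: growth inhibition of the cultured cell line, read out by a cell viability assay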
Description: SANGER: Inhibition of human BB30-HNC cell growth in a cell viability assay.

BB49-HNC = conditions: Homo sapiens, BB49-HNC;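 note: cell viability assay read-out, reported as inhibition of BB49-HNC cell growth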
Description: SANGER: Inhibition of human BB49-HNC cell growth in a cell viability assay.

TE-6 = conditions: Homo sapiens, TE-6;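 note: growth inhibition of TE-6 cells, read out with a cell viability assay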
Description: SANGER: Inhibition of human TE-6 cell growth in a cell viability assay.

TGBC1TKB = conditions: Homo sapiens, TGBC1TKB;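 note: growth inhibition of TGBC1TKB cells, read out by a cell viability assay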
Description: SANGER: Inhibition of human TGBC1TKB cell growth in a cell viability assay.

U-266 = conditions: Homo sapiens, U-266
Description: SANGER: Inhibition of human U-266 cell growth in a cell viability assay.

CAS-1 = conditions: Homo sapiens, CAS-1;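 note: growth inhibition of CAS-1 cells, measured with a cell viability assay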
Description: SANGER: Inhibition of human CAS-1 cell growth in a cell viability assay.

COLO-668 = conditions: Homo sapiens, COLO-668
Description: SANGER: Inhibition of human COLO-668 cell growth in a cell viability assay.

Nc1ccn([C@@H]2O[C@H](CO)[C@@H](O)C2(F)F)c(=O)n1 [GEMCITABINE]
IC50 (COLO-829): > 1.02 µM | IC50 (DSH1): 0.0965 µM | IC50 (ES6): < 0.004 µM | IC50 (ETK-1): 0.00808 µM | IC50 (EW-13): < 0.004 µM | IC50 (EW-24): > 1.02 µM | IC50 (HCC2157): > 1.02 µM | IC50 (HCE-4): < 0.004 µM | IC50 (HCE-T): 0.0124 µM | IC50 (IST-MEL1): < 0.004 µM | IC50 (JVM-2): > 1.02 µM | IC50 (KARPAS-45): > 1.02 µM | IC50 (KE-37): < 0.004 µM | IC50 (KG-1): 0.0622 µM | IC50 (KM-H2): 0.261 µM | IC50 (KNS-81-FD): > 1.02 µM | IC50 (KURAMOCHI): > 1.02 µM | IC50 (LB771-HNC): > 1.02 µM | IC50 (LS-1034): > 1.02 µM | IC50 (LS-513): 0.888 µM | IC50 (LU-134-A): 0.04 µM | IC50 (MOLT-4): 0.0653 µM | IC50 (MS-1): 0.0463 µM | IC50 (Mo): > 1.02 µM | IC50 (NB10): 0.0244 µM | IC50 (NCI-H1395): > 1.02 µM | IC50 (NCI-H1650): 0.0254 µM | IC50 (NCI-H1770): 0.055 µM | IC50 (NCI-H82): 0.373 µM | IC50 (NOMO-1): 0.0287 µM | IC50 (NOS-1): 0.0324 µM | IC50 (OCUB-M): 0.01 µM | IC50 (QIMR-WIL): < 0.004 µM | IC50 (RPMI-8866): 0.0952 µM | IC50 (RS4-11): < 0.004 µM | IC50 (RXF 393): > 1.02 µM | IC50 (SCH): > 1.02 µM | IC50 (SF-268): < 0.004 µM | IC50 (SF-539): 0.00102 µM | IC50 (SK-MEL-1): > 1.02 µM | IC50 (8-MG-BA): 0.00593 µM | IC50 (A4-Fuk): < 0.004 µM | IC50 (BB30-HNC): < 0.004 µM | IC50 (BB49-HNC): > 1.02 µM | IC50 (TE-6): 0.25 µM | IC50 (TGBC1TKB): > 1.02 µM | IC50 (U-266): 0.608 µM | IC50 (CAS-1): 0.955 µM | IC50 (COLO-668): 0.00266 µM

OCCCNc1cc(-c2ccnc(Nc3cccc(Cl)c3)n2)ccn1
IC50 (COLO-829): > 0.256 µM | IC50 (DSH1): > 0.256 µM | IC50 (ES6): 0.00878 µM | IC50 (ETK-1): 0.0138 µM | IC50 (EW-13): > 0.256 µM | IC50 (EW-24): > 0.256 µM | IC50 (HCC2157): 0.206 µM | IC50 (HCE-4): > 0.256 µM | IC50 (HCE-T): 0.0473 µM | IC50 (IST-MEL1): 0.126 µM | IC50 (JVM-2): > 0.256 µM | IC50 (KARPAS-45): 0.104 µM | IC50 (KE-37): 0.0818 µM | IC50 (KG-1): > 0.256 µM | IC50 (KM-H2): > 0.256 µM | IC50 (KNS-81-FD): > 0.256 µM | IC50 (KURAMOCHI): 0.0598 µM | IC50 (LB771-HNC): 0.161 µM | IC50 (LS-1034): 0.255 µM | IC50 (LS-513): > 0.256 µM | IC50 (LU-134-A): 0.123 µM | IC50 (MOLT-4): > 0.256 µM | IC50 (MS-1): 0.196 µM | IC50 (Mo): > 0.256 µM | IC50 (NB10): > 0.256 µM | IC50 (NCI-H1395): > 0.256 µM | IC50 (NCI-H1650): > 0.256 µM | IC50 (NCI-H1770): > 0.256 µM | IC50 (NCI-H82): > 0.256 µM | IC50 (NOMO-1): > 0.256 µM | IC50 (NOS-1): 0.0196 µM | IC50 (OCUB-M): 0.0525 µM | IC50 (QIMR-WIL): 0.0488 µM | IC50 (RPMI-8866): 0.0738 µM | IC50 (RS4-11): 0.0696 µM | IC50 (RXF 393): 0.037 µM | IC50 (SCH): > 0.256 µM | IC50 (SF-268): 0.0422 µM | IC50 (SF-539): > 0.256 µM | IC50 (SK-MEL-1): > 0.256 µM | IC50 (8-MG-BA): 0.056 µM | IC50 (A4-Fuk): 0.028 µM | IC50 (BB30-HNC): 0.0525 µM | IC50 (BB49-HNC): 0.0963 µM | IC50 (TE-6): > 0.256 µM | IC50 (TGBC1TKB): 0.0236 µM | IC50 (U-266): > 0.256 µM | IC50 (CAS-1): > 0.256 µM | IC50 (COLO-668): 0.236 µM

COc1cccc2c1C(=O)c1c(O)c3c(c(O)c1C2=O)C[C@@](O)(C(=O)CO)C[C@@H]3O[C@H]1C[C@H](N)[C@H](O)[C@H](C)O1 [DOXORUBICIN]
IC50 (COLO-829): > 1.02 µM | IC50 (DSH1): 0.373 µM | IC50 (ES6): 0.137 µM | IC50 (ETK-1): 0.083 µM | IC50 (EW-13): 0.00963 µM | IC50 (EW-24): 0.97 µM | IC50 (HCC2157): 0.064 µM | IC50 (HCE-4): 0.0181 µM | IC50 (HCE-T): 0.165 µM | IC50 (IST-MEL1): 0.0448 µM | IC50 (JVM-2): 0.242 µM | IC50 (KARPAS-45): > 1.02 µM | IC50 (KE-37): 0.021 µM | IC50 (KG-1): 0.362 µM | IC50 (KM-H2): 0.0907 µM | IC50 (KNS-81-FD): 0.16 µM | IC50 (KURAMOCHI): 0.127 µM | IC50 (LB771-HNC): > 1.02 µM | IC50 (LS-1034): 0.385 µM | IC50 (LS-513): > 1.02 µM | IC50 (LU-134-A): 0.0677 µM | IC50 (MOLT-4): 0.0229 µM | IC50 (MS-1): 0.253 µM | IC50 (Mo): 0.805 µM | IC50 (NB10): 0.188 µM | IC50 (NCI-H1395): > 1.02 µM | IC50 (NCI-H1650): 0.0786 µM | IC50 (NCI-H1770): 0.133 µM | IC50 (NCI-H82): > 1.02 µM | IC50 (NOMO-1): 0.224 µM | IC50 (NOS-1): 0.0791 µM | IC50 (OCUB-M): 0.0152 µM | IC50 (QIMR-WIL): 0.0207 µM | IC50 (RPMI-8866): 0.192 µM | IC50 (RS4-11): 0.0191 µM | IC50 (RXF 393): 0.335 µM | IC50 (SCH): > 1.02 µM | IC50 (SF-268): 0.0924 µM | IC50 (SF-539): 0.122 µM | IC50 (SK-MEL-1): > 1.02 µM | IC50 (8-MG-BA): 0.0221 µM | IC50 (A4-Fuk): 0.162 µM | IC50 (BB30-HNC): 0.0298 µM | IC50 (BB49-HNC): > 1.02 µM | IC50 (TE-6): 0.47 µM | IC50 (TGBC1TKB): > 1.02 µM | IC50 (U-266): 0.451 µM | IC50 (CAS-1): 0.238 µM | IC50 (COLO-668): 0.0845 µM

Reference: ChEMBL document CHEMBL1201861, “Genomics of Drug Sensitity in Cancer screening data, Wellcome Trust Sanger Institute”
